Entries after “also recorded” stand apart in the source; their conditions may differ. Structures can show the parent of a compound that is named as a salt.
Tests used:
[1] = system: core (α1,6)-fucosylation in CHO K1 cells; assay: Aleura aurantia lectin blot of CHO K1 cells; assay type: cell-based; settings: CHO K1, 48 h
[2] = system: sialyl-Lewis X (sLeX) expression in HepG2 cells; assay: Immunoblot and lectin blot of HepG2 lysates; assay type: cell-based, human
Method: More specifically, monolayers of Hep G2 cells were grown to about 75% confluency in DMEM containing 10% FBS before they were switched to serum free media for 10 h. FBS-free conditions were utilized to limit the amount of fucose which could be made available to cells upon degradation of serum glycoproteins. Cells were subsequently exposed to peracetylated 5-thio-L-fucose (5-T-Fuc) in serum free media for 48 h after which the media were collected, gently centrifuged (800 rpm, 10 min, 4° C.) to remove dead cells, and concentrated (˜10-fold) by centrifugal filration (Amicon, NMWCO 3000 daltons). Cells were washed with cold PBS prior to harvesting them in PBS+0.5% SDS. Proteins were solubilised upon sonication (2 blasts, 10 sec, 15% power) and protein concentrations were determined for all samples by the DC protein concentration assay (BioRad). Samples were normalized prior to analysis. Identical amounts of proteins were analyzed for all lectin-blotting experiments. Cell extracts and conditioned media containing secreted proteins were all analyzed on 8% polyacrylamide gels (FIG. 10).
Monolayers of HepG2 cells were exposed to 50 μM 5-T-Fuc for varying lengths of time before they were harvested as described above. When necessary, fresh media and inhibitors were added after 24 h. Alternatively, cells were exposed to 5-T-Fuc for 24 h after which the media was replaced and cells were harvested at the indicated time-points (FIG. 11).

[3] = system: anti-O-GlcNAc antibody CTD110.6; assay: Blocking of anti-O-GlcNAc antibody binding to modified nup62; settings: 0-3 mM
Method: Blocking antibody interactions: Recombinantly modified nup62 was run on a gel and transferred onto nitrocellulose membrane. CTD110.6 at the appropriate dilution was incubated with 0-3 mM Me-GlcNAc or Me-5SGlcNAc for 1 h prior to applying to the membrane overnight at 4° C. The standard procedure for western blots was subsequently followed.

OGT [4] = biological target: T1, OGT (Homo sapiens, UniProt O15294); assay: OGT transfer: UDP-sugar as donor, nup62 acceptor, UDP production by CE; assay type: biochemical
T1 construct: made in house
Method: Capillary electrophoresis (CE): CE was performed on a ProteomeLab PA800 (Beckman-Coulter) using fused silica capillaries of […]×44 cm (to detector). The running buffer was 40 mM Na2B4O7 (Sigma), pH 9.5, containing 1.0% (wv) polyethylene glycol (MW 20,000; Fluka) and filtered prior to use. The capillary was conditioned by washing with 1 N NaOH (2 min, 20 psi), 18 MΩ H2O (3 min, 20 psi) and running buffer (5 min, 40 psi). After injecting a short (15 nL) H2O plug, samples were electrostatically introduced and pre-concentrated at the anode by applying a potential of -0.5 kV for 10 s according to the field-amplified sample injection technique described by Chien and Burgi^39. […] Electropherograms were derived by measuring the absorbance at 254 (+/−10) nm at a rate of 4 Hz. […]
OGT transfer: The ability of OGT (which was over-expressed and purified as described in Ref. ^40) to transfer UDP-5SGlcNAc was tested using recombinant nup62 as the acceptor. […] Production of UDP was monitored at 254 nm; the concentration was determined from a standard curve of UDP standards, which were prepared in triplicate using the same procedure as the reactions, at a concentration of between […] Controls in the absence of nup62 were subtracted to account for OGT-catalyzed hydrolysis of the UDP-sugars.

OGT [5] = biological target: T1, OGT; settings: literature refs 40, 53; read-out: Km of natural substrate for OGT; cited from earlier work

T1 sequence (O15294 whole entry): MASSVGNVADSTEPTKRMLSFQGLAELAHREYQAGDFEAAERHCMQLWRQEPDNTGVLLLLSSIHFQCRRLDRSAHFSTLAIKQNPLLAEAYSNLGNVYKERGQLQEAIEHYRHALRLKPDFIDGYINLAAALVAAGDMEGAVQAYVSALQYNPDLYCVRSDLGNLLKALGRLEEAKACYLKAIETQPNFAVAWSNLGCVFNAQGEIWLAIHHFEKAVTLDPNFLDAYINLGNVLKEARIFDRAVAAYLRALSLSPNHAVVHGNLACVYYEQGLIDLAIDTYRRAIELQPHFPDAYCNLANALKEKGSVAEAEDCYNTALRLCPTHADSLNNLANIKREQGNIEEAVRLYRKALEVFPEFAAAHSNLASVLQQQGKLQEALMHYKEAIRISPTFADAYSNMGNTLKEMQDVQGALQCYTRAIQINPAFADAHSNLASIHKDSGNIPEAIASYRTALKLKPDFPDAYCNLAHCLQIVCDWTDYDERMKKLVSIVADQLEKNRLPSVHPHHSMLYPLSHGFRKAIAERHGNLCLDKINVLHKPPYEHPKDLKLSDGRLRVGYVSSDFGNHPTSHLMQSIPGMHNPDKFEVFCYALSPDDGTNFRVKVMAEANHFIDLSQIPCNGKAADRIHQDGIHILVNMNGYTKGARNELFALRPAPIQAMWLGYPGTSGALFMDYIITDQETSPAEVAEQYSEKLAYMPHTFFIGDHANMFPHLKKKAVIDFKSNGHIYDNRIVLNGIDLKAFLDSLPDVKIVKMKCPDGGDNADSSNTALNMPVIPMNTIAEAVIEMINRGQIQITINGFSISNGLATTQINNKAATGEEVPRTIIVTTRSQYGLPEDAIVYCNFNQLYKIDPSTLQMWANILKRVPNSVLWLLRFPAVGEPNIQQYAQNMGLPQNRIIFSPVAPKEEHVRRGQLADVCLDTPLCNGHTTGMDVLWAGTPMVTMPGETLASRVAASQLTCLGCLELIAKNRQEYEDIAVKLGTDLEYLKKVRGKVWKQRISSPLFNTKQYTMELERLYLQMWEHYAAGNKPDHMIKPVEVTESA

C[C@H](S)[C@@H](O)[C@@H](O)[C@H](O)C=O [Compound 5-T-Fuc, 5-thiofucose]
core-fucosylated antigens by Aleura aurantia lectin [1]: no further decrease in lectin reactivity was observed above inhibitor concentrations of 5 μM; also recorded: reduction in core (α1,6)-fucosylation
sLeX expression, time course ([2]; HepG2, 50 μM): reduces sLeX expression in a time-dependant fashion
Aleura aurantia lectin reactivity ([2]; HepG2, 48 h): no decrease in Aleura aurantia lectin reactivity was observed
Maackia amurensis lectin binding ([2]; HepG2, 48 h): dose-dependent increase in Maackia amurensis lectin binding
time to full recovery of sLeX expression after exposure ([2]; HepG2, after a 24 h exposure): ≤ 24 h
sLeX expression, dose response ([2]; HepG2, serum free media, 48 h, anti-CD15s): significant, dose-dependent decrease in sLe^X expression; also recorded: reduces sialyl-lewis X expression in HepG2 liver cells

CO[C@H]1S[C@H](CO)[C@@H](O)[C@H](O)[C@H]1NC(C)=O [Compound 16, Methyl 2-acetamido-2-deoxy-5-thio-a-D-glucopyranoside]
blocking of CTD110.6 binding [3]: blocks binding almost as well as Me-GlcNAc

CC(=O)N[C@@H]1[C@@H](O)[C@H](O)[C@@H](CO)S[C@@H]1OP(=O)(O)OP(=O)(O)OC[C@H]1O[C@@H](n2ccc(=O)[nH]c2=O)[C@H](O)[C@@H]1O [UDP-5SGlcNAc, 5′-(2-acetamido-2-deoxy-5-thio-a-D-glucopyranosyl)diphosphate triethylammonium salt]
fold worse donor substrate for OGT as compared to UDP-GlcNAc (OGT [4]): approximately 14 fold

uridine diphospho-N-acetylglucosamine [UDP-GlcNAc]
Km (OGT [5]): 2 to 7 µM

From patent US20150259371A1, “METHODS AND COMPOUNDS FOR INHIBITING GLYCOSYLTRANSFERASES” (SIMON FRASER UNIVERSITY, priority 2010, published 2015)
